Assay results: EPA's ToxRefDB 2

How the values were obtained:
[1] = system: mouse; details: Combined chronic toxicity/carcinogenicity, cd1, Oral, Feed, dose end: 80 week, group: systemic
[2] = system: mouse; details: Subchronic oral toxicity in rodents, cd1, Feed, dose end: 91 day, group: systemic
[3] = system: rat; details: Subchronic oral toxicity in rodents, other, Feed, dose end: 90 day, group: systemic
[4] = system: rat; details: Multigenerational reproductive toxicity study, sprague dawley, Oral, Feed, dose end: 2 generation
[5] = system: dog; details: Subchronic oral toxicity in nonrodent, beagle, Feed, dose end: 90 day, group: systemic, systemic / in life observation / body weight / body weight gain + systemic / in life observation / clinical signs / emaciation + systemic / …
[6] = system: rat; details: Combined chronic toxicity/carcinogenicity, sprague dawley, Oral, Feed, dose end: 104 week, group: systemic
[7] = system: dog; details: Chronic toxicity, beagle, Oral, Feed, dose end: 52 week, group: systemic
[8] = system: dog; details: Sub-acute repeat dose toxicity; beagle; Oral; Gavage/Intubation; dose end: 21 day; group: systemic; systemic / in life observation / clinical signs / abnormal feces + systemic / in life observation / clinical signs / watery stools
[9] = system: rat; details: Subchronic oral toxicity in rodents, sprague dawley, Gavage/Intubation, dose end: 92 day, group: systemic
[10] = system: rat; details: Sub-acute repeat dose toxicity, sprague dawley, Oral, Gavage/Intubation, dose end: 15 day, group: systemic
[11] = system: dog; details: Sub-acute repeat dose toxicity; beagle; Oral; Gavage/Intubation; dose end: 16 day; group: systemic; systemic / in life observation / clinical signs / abnormal feces + systemic / in life observation / clinical signs / emesis + systemic / in …
[12] = system: rabbit; details: Sub-acute repeat dose toxicity, new zealand white, Oral, Gavage/Intubation, dose end: 5 day, group: systemic
[13] = system: rat; details: Sub-acute repeat dose toxicity, Oral, Gavage/Intubation, dose end: 12 day, group: systemic
[14] = system: dog; details: Subchronic oral toxicity in nonrodent, beagle, Gavage/Intubation, dose end: 92 day, group: systemic
[15] = system: dog; details: Sub-acute repeat dose toxicity; beagle; Oral; Gavage/Intubation; dose end: 23 day; group: systemic; systemic / in life observation / clinical signs / abnormal feces + systemic / in life observation / clinical signs / watery stools
[16] = systemic / pathology gross / ear / misshapen
[17] = systemic / pathology microscopic / liver / hypertrophy
[18] = systemic / pathology microscopic / liver / hypertrophy + systemic / clinical chemistry / albumin / albumin + systemic / clinical chemistry…
[19] = systemic / organ weight / liver / absolute + systemic / organ weight / liver / relative to body weight + systemic / clinical chemistry / …
[20] = systemic / organ weight / liver / absolute + systemic / organ weight / liver / relative to body weight + systemic / in life observation / …
[21] = group: offspring, systemic / in life observation / body weight / offspring (pup) weight
[22] = group: parental, systemic / in life observation / body weight / body weight gain + systemic / in life observation / body weight / body weight
[23] = group: reproductive, reproductive / reproductive performance / gestational length / gestational length
[24] = systemic / clinical chemistry / globulins / globulins + systemic / pathology gross / full gross necropsy / lymp lymphoma malignant …
[25] = systemic / in life observation / body weight / body weight + systemic / in life observation / body weight / body weight gain + systemic / in…
[26] = systemic / in life observation / body weight / body weight gain + systemic / in life observation / food consumption / food consumption
[27] = systemic / in life observation / body weight / body weight gain + systemic / in life observation / food consumption / food consumption + …
[28] = systemic / in life observation / mortality / mortality + systemic / pathology gross / stomach / discolored + systemic / pathology gross / …
[29] = systemic / in life observation / body weight / body weight + systemic / in life observation / clinical signs / abnormal feces + systemic / …
[30] = systemic / in life observation / body weight / body weight + systemic / in life observation / clinical signs / red or crusty deposits around…
[31] = systemic / in life observation / clinical signs / salivation + systemic / organ weight / liver / absolute
[32] = systemic / clinical chemistry / [other] / [other] + systemic / clinical chemistry / cytochrome p450, nos / cytochrome p450, nos + systemic…

Question: Which results are given for CCOCn1c(-c2ccc(Cl)cc2)c(C#N)c(Br)c1C(F)(F)F [Chlorfenapyr]?
Answer: LOAEL ([1]; systemic / in life observation / clinical signs / scabbing + systemic / pathology microscopic / brain / vacuolization): 16.6 mg/kg/day; NOAEL ([1]; systemic / in life observation / clinical signs / scabbing + systemic / pathology microscopic / brain / vacuolization + systemic / …): 2.8 mg/kg/day; LEL [1, 16]: 2.8 mg/kg/day; NEL [1, 16]: < 2.8 mg/kg/day; LOAEL [2, 17]: 14.8 mg/kg/day; NEL [2, 18]: 7.1 mg/kg/day; NOAEL [2, 18]: 7.1 mg/kg/day; LEL ([2]; systemic / pathology microscopic / liver / hypertrophy + systemic / hematology / lymphocyte / lymphocyte + systemic / hematology / …): 14.8 mg/kg/day; NEL [3, 19]: 24.1 mg/kg/day; NOAEL [3, 19]: 24.1 mg/kg/day; LEL [3, 20]: 48.4 mg/kg/day; LOAEL [3, 20]: 48.4 mg/kg/day; LEL [4, 21]: 22 mg/kg/day; LOAEL [4, 21]: 22 mg/kg/day; NEL [4, 21]: 5 mg/kg/day; NOAEL [4, 21]: 5 mg/kg/day; NEL ([4]; group: parental, systemic / in life observation / body weight / body weight + systemic / in life observation / body weight / body weight gain): 5 mg/kg/day; LOAEL ([4]; group: parental, systemic / in life observation / body weight / body weight gain): 22 mg/kg/day; LEL [4, 22]: 22 mg/kg/day; NOAEL [4, 22]: 5 mg/kg/day; LEL [4, 23]: 44 mg/kg/day; LOAEL [4, 23]: > 44 mg/kg/day; NEL [4, 23]: 22 mg/kg/day; NOAEL [4, 23]: ≥ 44 mg/kg/day; LEL [5]: 6.7 mg/kg/day; LOAEL [5]: 6.7 mg/kg/day; NEL [5]: 3.9 mg/kg/day; NOAEL [5]: 3.9 mg/kg/day; NEL [6, 24]: 30.8 mg/kg/day; NOAEL [6, 24]: 2.9 mg/kg/day; LOAEL [6, 17]: 15 mg/kg/day; LOAEL ([7]; systemic / in life observation / body weight / body weight + systemic / in life observation / body weight / body weight gain): 8.7 mg/kg/day; LEL [7, 25]: 8.7 mg/kg/day; NEL [7, 25]: 4 mg/kg/day; NOAEL [7, 25]: 4 mg/kg/day

Question: CCC(CC)Nc1cc(C)nc(Oc2c(C)cc(C)cc2C)c1C was tested. Which LEL [8] did it give?
Answer: Its LEL is 5 mg/kg/day.

Question: And the LOAEL [8]?
Answer: Its LOAEL is greater than 5 mg/kg/day.

Question: And the NEL [8]?
Answer: The NEL was 1 mg/kg/day.

Question: And the NOAEL [8]?
Answer: The NOAEL was no less than 5 mg/kg/day.

Question: What about the LEL [9, 26] of the same compound?
Answer: Its LEL is 1 mg/kg/day.

Question: What about the NEL [9, 26] of the same compound?
Answer: The NEL was less than 1 mg/kg/day.

Question: What about the LOAEL [9, 27] of the same compound?
Answer: The LOAEL was greater than 100 mg/kg/day.

Question: And the NOAEL [9, 27]?
Answer: The NOAEL was no less than 100 mg/kg/day.

Question: And the LEL ([10]; systemic / in life observation / body weight / body weight + systemic / in life observation / body weight / body weight gain + systemic / …)?
Answer: Its LEL is 100 mg/kg/day.

Question: What about the LOAEL [10, 28] of the same compound?
Answer: Its LOAEL is greater than 1000 mg/kg/day.

Question: What about the NOAEL [10, 28] of the same compound?
Answer: The NOAEL was no less than 1000 mg/kg/day.

Question: What about the LEL [11] of the same compound?
Answer: Its LEL is 20 mg/kg/day.

Question: And the LOAEL [11]?
Answer: The LOAEL was greater than 20 mg/kg/day.

Question: And the NEL [11]?
Answer: The NEL was 10 mg/kg/day.

Question: What about the NOAEL [11] of the same compound?
Answer: The NOAEL was no less than 20 mg/kg/day.

Question: And the LOAEL [12, 29]?
Answer: The LOAEL was greater than 500 mg/kg/day.

Question: And the NEL [12, 29]?
Answer: The NEL was 50 mg/kg/day.

Question: And the NOAEL [12, 29]?
Answer: Its NOAEL is no less than 500 mg/kg/day.

Question: And the LEL ([12]; systemic / in life observation / food consumption / food consumption)?
Answer: Its LEL is 100 mg/kg/day.

Question: And the LOAEL [13, 30]?
Answer: The LOAEL was greater than 500 mg/kg/day.

Question: What about the NOAEL [13, 30] of the same compound?
Answer: The NOAEL was no less than 500 mg/kg/day.

Question: What about the LEL [13, 31] of the same compound?
Answer: The LEL was 250 mg/kg/day.

Question: What about the NEL [13, 31] of the same compound?
Answer: The NEL was less than 250 mg/kg/day.

Question: What about the LOAEL [14, 32] of the same compound?
Answer: The LOAEL was greater than 20 mg/kg/day.

Question: And the NOAEL [14, 32]?
Answer: The NOAEL was no less than 20 mg/kg/day.

Question: What about the LEL ([14]; systemic / in life observation / clinical signs / abnormal feces) of the same compound?
Answer: Its LEL is 2 mg/kg/day.

Question: And the LEL [15]?
Answer: Its LEL is 1 mg/kg/day.

Question: And the LOAEL [15]?
Answer: The LOAEL was greater than 1 mg/kg/day.

Question: And the NEL [15]?
Answer: The NEL was less than 1 mg/kg/day.

Question: And the NOAEL [15]?
Answer: Its NOAEL is no less than 1 mg/kg/day.
